Experimental data taken from publication PMC4965013, “Open Source Drug Discovery with the Malaria Box Compound Collection for Neglected Diseases and Beyond” (PLoS Pathogens, 2016).
pEC50, pIC50: −log10 of the molar value. Read-outs that look alike come from different tables or passages of the source.

Tests used:
P. falciparum 3D7 = assay: [3H]-hypoxanthine growth inhibition, modified HCO3- or O2; format: cell-based; settings: for pIC50: Plasmodium falciparum
[1] = system: P. falciparum 3D7 trophozoites; assay: Metabolomic fingerprint profiling LC-MS; format: cell-based, Plasmodium falciparum; set-up: UDP-D-glucose / ADP-D-glucose: unit not given here; settings: for Acetyllysine / N-acetyl-L-ornithine / N-carbamoyl-L-aspartate / NADPH / dAMP / dCMP / dTDP / dTMP / dTTP / dihydroorotate / orotate / DLH / DLS/SDL/SID / PD / PEE / PVNF / 3-phosphoglycerate / ADP-D-glucose / ATP / CDP / D-sedoheptulose-1/7-phosphate / FAD / GMP / NAD+ / NADP+ / Octoluse Bisphosphate / Pyroglutamic acid / UDP-D-glucose / UDP-D-glucuronate / UDP-N-acetyl-glucosamine / UDP / UMP / UTP / a-ketoglutarate / citrate/isocitrate / cytidine / dATP / dGMP/AMP / fumarate / glucose-1/6-phosphate / glycerate / guanine / guanosine / hypoxanthine / indole / inosine / nicotinate / ornithine / phosphoenolpyruvate / pyruvate / ribose-phosphate / sarcosine/alanine / sn-glycerol-3-phosphate / succinate/methylmalonic acid / uridine / xanthosine: S2 Table Metabolomics; for Acetyllysine: metabolite Acetyllysine; for N-acetyl-L-ornithine: metabolite N-acetyl-L-ornithine; for N-carbamoyl-L-aspartate: metabolite N-carbamoyl-L-aspartate; for NADPH: metabolite NADPH; for dAMP: metabolite dAMP; for dCMP: metabolite dCMP; for dTDP: metabolite dTDP; for dTMP: metabolite dTMP; for dTTP: metabolite dTTP; for dihydroorotate: metabolite dihydroorotate; for orotate: metabolite orotate; for DLH: peptide DLH; for DLS/SDL/SID: peptide DLS/SDL/SID; for PD: peptide PD; for PEE: peptide PEE; for PVNF: peptide PVNF; for 3-phosphoglycerate: metabolite 3-phosphoglycerate; for ADP-D-glucose: metabolite ADP-D-glucose; for ATP: metabolite ATP; for CDP: metabolite CDP; for CDP / D-sedoheptulose-1/7-phosphate / GMP / Octoluse Bisphosphate / UDP / UMP / UTP / citrate/isocitrate / dGMP/AMP / fumarate / glucose-1/6-phosphate / glycerate / guanine / guanosine / inosine / pyruvate / sarcosine/alanine / succinate/methylmalonic acid / uridine / xanthosine: change in metabolite level after compound treatment; for D-sedoheptulose-1/7-phosphate: metabolite D-sedoheptulose-1/7-phosphate; for FAD: metabolite FAD; for GMP: metabolite GMP; for NAD+: metabolite NAD+; for NADP+: metabolite NADP+; for Octoluse Bisphosphate: metabolite Octoluse Bisphosphate; for Pyroglutamic acid: metabolite Pyroglutamic acid; for UDP-D-glucose: metabolite UDP-D-glucose; for UDP-D-glucuronate: metabolite UDP-D-glucuronate; for UDP-N-acetyl-glucosamine: metabolite UDP-N-acetyl-glucosamine; for UDP: metabolite UDP; for UMP: metabolite UMP; for UTP: metabolite UTP; for a-ketoglutarate: metabolite a-ketoglutarate; for citrate/isocitrate: metabolite citrate/isocitrate; for cytidine: metabolite cytidine; for dATP: metabolite dATP; for dGMP/AMP: metabolite dGMP/AMP; for fumarate: metabolite fumarate; for glucose-1/6-phosphate: metabolite glucose-1/6-phosphate; for glycerate: metabolite glycerate; for guanine: metabolite guanine; for guanosine: metabolite guanosine; for hypoxanthine: metabolite hypoxanthine; for indole: metabolite indole; for inosine: metabolite inosine; for 2_3-Diphosphoglyceric acid / 4-phosphopantothenate / 6-phospho-D-gluconate / FMN / IMP / Pyrophosphate / Sedoheptoluse bisphosphate / cyclic-AMP / glutathione disulfide / lactate / myo-inositol: metabolite level change after treatment; for nicotinate: metabolite nicotinate; for ornithine: metabolite ornithine; for phosphoenolpyruvate: metabolite phosphoenolpyruvate; for pyruvate: metabolite pyruvate; for ribose-phosphate: metabolite ribose-phosphate; for sarcosine/alanine: metabolite sarcosine/alanine; for sn-glycerol-3-phosphate: metabolite sn-glycerol-3-phosphate; for succinate/methylmalonic acid: metabolite succinate/methylmalonic acid; for uridine: metabolite uridine; for xanthosine: metabolite xanthosine
P. falciparum = assay: EC50 listed in S2 Table Metabolomics (used to set the concentration tested); format: cell-based; settings: Plasmodium falciparum; EC50 used for Factor_XEC50 in metabolomics; read-out: EC50_nM
[2] = 3D7, read-out: P. falciparum 3D7 IC50 HCO3- (2g/L), standard media
[3] = 3D7, HCO3- reduced media, read-out: P. falciparum 3D7 IC50 HCO3- reduced

## CCN(CC)CCNc1ccnc2cc(Cl)ccc12 [MMV006087]
P. falciparum 3D7
  fold change (IC50normal/ IC50hypoxia): 2.2
  fold change (IC50reduced/IC50normal): 2.0
P. falciparum 3D7; 3D7, read-out: P. falciparum 3D7 IC50 1% O2, 1% O2 hypoxia
  pIC50: 7.74
P. falciparum 3D7; 3D7, read-out: P. falciparum 3D7 IC50 5% O2
  pIC50: 7.40
P. falciparum 3D7; [2]
  pIC50: 7.34
P. falciparum 3D7; [3]
  pIC50: 7.03
[1]
  Acetyllysine: -0.6709
  N-acetyl-L-ornithine: -0.3158
  N-carbamoyl-L-aspartate: 0.2408
  NADPH: 1.332
  dAMP: 1.732
  dCMP: 0.4187
  dTDP: 0.1999
  dTMP: 1.797
  dTTP: -0.4289
  dihydroorotate: 0.1541
  orotate: -0.4098
  DLH: -1.609
  DLS/SDL/SID: -1.645
  PD: -0.5241
  PEE: 0.8188
  PVNF: -2.104
  3-phosphoglycerate: -0.1063
  ADP-D-glucose: 0.134
  ATP: -0.2173
  CDP: 0.2969
  D-sedoheptulose-1/7-phosphate: -0.3976
  FAD: -0.08711
  GMP: 0.04645
  NAD+: -0.09966
  NADP+: 0.09641
  Octoluse Bisphosphate: 0.7357
  Pyroglutamic acid: -0.2816
  UDP-D-glucose: -0.03029
  UDP-D-glucuronate: -0.03795
  UDP-N-acetyl-glucosamine: -0.1287
  UDP: -0.01186
  UMP: -0.1675
  UTP: -0.4234
  a-ketoglutarate: -1.012
  citrate/isocitrate: -0.5672
  cytidine: 0.4735
  dATP: -0.2015
  dGMP/AMP: 1.373
  fumarate: -0.3281
  glucose-1/6-phosphate: -0.3642
  glycerate: -1.245
  guanine: -0.2729
  guanosine: -1.735
  hypoxanthine: 0.3732
  indole: 0.02177
  inosine: -0.5366
  2_3-Diphosphoglyceric acid: -0.3682
  4-phosphopantothenate: -0.474
  6-phospho-D-gluconate: -0.3619
  FMN: 0.01066
  IMP: -0.05089
  Pyrophosphate: -0.2464
  Sedoheptoluse bisphosphate: 1.503
  cyclic-AMP: -0.4094
  glutathione disulfide: -0.5661
  lactate: -0.8938
  myo-inositol: -1.322
  nicotinate: -1.055
  ornithine: 0.317
  phosphoenolpyruvate: -0.3268
  pyruvate: -1.42
  ribose-phosphate: -0.4165
  sarcosine/alanine: -0.8094
  sn-glycerol-3-phosphate: -0.2401
  succinate/methylmalonic acid: -0.2149
  uridine: -1.004
  xanthosine: -1.365
P. falciparum
  pEC50: 7.24

## CCN(CC)CCNc1ncnc2c1[nH]c1ccc(Cl)cc12 [MMV396703]
P. falciparum 3D7
  fold change (IC50reduced/IC50normal): 2.6
P. falciparum 3D7; [2]
  pIC50: 6.49
P. falciparum 3D7; [3]
  pIC50: 6.07
[1]
  Acetyllysine: -0.2691
  N-acetyl-L-ornithine: -0.2168
  N-carbamoyl-L-aspartate: 1.148
  NADPH: -0.09375
  dAMP: 0.7031
  dCMP: -0.6066
  dTDP: 0.1301
  dTMP: 0.2768
  dTTP: -0.448
  dihydroorotate: 1.736
  orotate: -0.221
  DLH: -2.825
  DLS/SDL/SID: -3.008
  PD: -0.5054
  PEE: -0.1284
  PVNF: -2.309
  3-phosphoglycerate: -0.08336
  ADP-D-glucose: -0.05094
  ATP: -0.4333
  CDP: 0.1613
  D-sedoheptulose-1/7-phosphate: 0.02906
  FAD: -0.01537
  GMP: -0.5327
  NAD+: 0.6915
  NADP+: -0.1108
  Octoluse Bisphosphate: -0.5568
  Pyroglutamic acid: -0.07773
  UDP-D-glucose: 0.04104
  UDP-D-glucuronate: -0.19
  UDP-N-acetyl-glucosamine: 0.01931
  UDP: 0.1008
  UMP: -0.1897
  UTP: -0.3667
  a-ketoglutarate: -0.2121
  citrate/isocitrate: -0.02741
  cytidine: -0.169
  dATP: -0.3924
  dGMP/AMP: 0.4109
  fumarate: 0.899
  glucose-1/6-phosphate: 0.3195
  glycerate: 0.2766
  guanine: 0.5966
  guanosine: 0.5739
  hypoxanthine: -0.03794
  indole: -0.04008
  inosine: 0.01185
  2_3-Diphosphoglyceric acid: -0.2785
  4-phosphopantothenate: 0.1971
  6-phospho-D-gluconate: -0.09007
  FMN: -0.3587
  IMP: 0.3624
  Pyrophosphate: -0.1133
  Sedoheptoluse bisphosphate: 0.1128
  cyclic-AMP: -0.07748
  glutathione disulfide: -0.04771
  lactate: -0.382
  myo-inositol: -0.001865
  nicotinate: 0.1485
  ornithine: 0.2269
  phosphoenolpyruvate: -0.03548
  pyruvate: -0.182
  ribose-phosphate: -0.3286
  sarcosine/alanine: -0.1738
  sn-glycerol-3-phosphate: -0.2165
  succinate/methylmalonic acid: -0.02068
  uridine: -0.05174
  xanthosine: -0.494
P. falciparum
  pEC50: 6.39

## OC(CNC1CCCCC1)Cn1c2ccccc2c2ccccc21 (stereo not drawn) [MMV009063]
[1]
  Acetyllysine: -0.9697
  N-acetyl-L-ornithine: -0.4154
  N-carbamoyl-L-aspartate: -0.3154
  NADPH: 0.37
  dAMP: 0.9178
  dCMP: 4.938
  dTDP: 0.7098
  dTMP: 0.6703
  dTTP: 1.896
  dihydroorotate: -0.3265
  orotate: -0.5164
  DLH: -0.8674
  DLS/SDL/SID: -0.2423
  PD: -0.8841
  PEE: -0.7244
  PVNF: -0.6115
  3-phosphoglycerate: 0.9312
  ADP-D-glucose: 0.2307
  ATP: 0.3671
  CDP: 0.5148
  D-sedoheptulose-1/7-phosphate: -0.5559
  FAD: 0.5708
  GMP: 0.12
  NAD+: -0.1605
  NADP+: 0.3102
  Octoluse Bisphosphate: 0.2421
  Pyroglutamic acid: 0.1616
  UDP-D-glucose: 0.2936
  UDP-D-glucuronate: 0.2553
  UDP-N-acetyl-glucosamine: 0.3811
  UDP: 0.491
  UMP: 0.4628
  UTP: 0.409
  a-ketoglutarate: -0.1494
  citrate/isocitrate: 0.2484
  cytidine: 0.7064
  dATP: 0.1129
  dGMP/AMP: 0.3842
  fumarate: -0.3431
  glucose-1/6-phosphate: 1.039
  glycerate: 0.4301
  guanine: 0.4492
  guanosine: 0.3938
  hypoxanthine: 0.2685
  indole: -0.01895
  inosine: 0.305
  2_3-Diphosphoglyceric acid: 0.9003
  4-phosphopantothenate: 0.6116
  6-phospho-D-gluconate: 0.5165
  FMN: 0.5888
  IMP: 0.4443
  Pyrophosphate: -0.0661
  Sedoheptoluse bisphosphate: 0.4491
  cyclic-AMP: 0.4153
  glutathione disulfide: 0.4569
  lactate: 0.8013
  myo-inositol: 0.939
  nicotinate: 0.31
  ornithine: 0.3762
  phosphoenolpyruvate: 0.7676
  pyruvate: 0.735
  ribose-phosphate: 0.3548
  sarcosine/alanine: -0.09066
  sn-glycerol-3-phosphate: 0.5324
  succinate/methylmalonic acid: -0.07148
  uridine: 0.5909
  xanthosine: -0.08621
P. falciparum
  pEC50: 6.53
